Assays:
Test in all cases: 3' UTR reporter interaction score (median-centred robust z-score of log2 firefly/Renilla activity); higher = less repression of the 3' UTR reporter
Conditions in all cases: HEK293T; 48 h
BRCA2 = test system: BRCA2
Procedure, shortened: (§1)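 HEK293T cells were seeded at 10,000 per well in 96-well plates and co-transfected with DharmaFECT Duo, using 100 ng of a firefly luc2P reporter carrying the gene's 3' UTR, 20 ng of Renilla pRL-TK control and 2.5 pmol of miRNA mimic. Both luciferase activities were measured 48 h after transfection. The interaction score is the log-transformed firefly/Renilla ratio, converted to a per-plate robust z-score from the median and median absolute deviation and then median-centred per miRNA, with more negative values indicating interaction. Scores were averaged across at least two independent screens.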

EZH2 = test system: EZH2
Procedure, shortened: as §1

FBXW7 = test system: FBXW7
Procedure, shortened: as §1

HRAS = test system: HRAS
Procedure, shortened: as §1

MYB = test system: MYB
Procedure, shortened: as §1

MYCN = test system: MYCN
Procedure, shortened: as §1

MYC = test system: MYC
Procedure, shortened: as §1

MYT1L = test system: MYT1L
Procedure, shortened: as §1

NOTCH1 = test system: NOTCH1
Procedure, shortened: as §1

PHF6 = test system: PHF6
Procedure, shortened: as §1

PHOX2B = test system: PHOX2B
Procedure, shortened: as §1

RB1 = test system: RB1
Procedure, shortened: as §1

TP53 = test system: TP53
Procedure, shortened: as §1

ZEB2 = test system: ZEB2
Procedure, shortened: as §1

Row | Sequence | 3' UTR reporter interaction score (BRCA2) | 3' UTR reporter interaction score (EZH2) | 3' UTR reporter interaction score (FBXW7) | 3' UTR reporter interaction score (HRAS) | 3' UTR reporter interaction score (MYB) | 3' UTR reporter interaction score (MYCN) | 3' UTR reporter interaction score (MYC) | 3' UTR reporter interaction score (MYT1L) | 3' UTR reporter interaction score (NOTCH1) | 3' UTR reporter interaction score (PHF6) | 3' UTR reporter interaction score (PHOX2B) | 3' UTR reporter interaction score (RB1) | 3' UTR reporter interaction score (TP53) | 3' UTR reporter interaction score (ZEB2)
1 | UACUGCAUCAGGAACUGAUUGGAU | -0.471 | -1.49 | 0.0205 | 0.0273 | -0.822 | 0.685 | 0.358 | 1.06 | 0.0506 | -2.18 | 0.00207 | 1.24 | -0.963 | -0.414
2 | UAGAUAAAAUAUUGGUACCUG | 0.0137 | 0.412 | 0.354 | 0.836 | -0.19 | 0.037 | 0.271 | -0.105 | -0.186 | -0.242 | -1.45 | -0.00826 | 0.578 | -0.296
3 | UAGCACCAUCUGAAAUCGGUU | 0.502 | 0.717 | -3.02 | 0.469 | 0.702 | -3.08 | 0.338 | -0.146 | 0.229 | -0.0911 | -0.351 | -0.626 | -0.0665 | -0.458
4 | UAGCACCAUUUGAAAUCAGUGUU | 0.947 | 0.729 | -3.34 | -0.0949 | 0.253 | -3.52 | 0.295 | 0.287 | 0.166 | 0.425 | -1.1 | -0.25 | -0.394 | 0.0122
5 | UAGCACCAUUUGAAAUCGGU | 0.875 | 0.53 | -2.01 | 0.156 | 0.262 | -3.2 | 0.499 | -0.0531 | 0.946 | -0.281 | -0.0846 | -0.0587 | -0.108 | -0.664
6 | UAGCAGCACAGAAAUAUUGGC | -0.194 | -0.914 | -1.49 | -1.27 | -2.7 | -0.51 | -0.447 | -1.5 | -0.212 | 1.22 | 0.776 | 0.887 | 0.439 | 2.12
7 | UAGCAGCACAUCAUGGUUUACA | -0.138 | -0.225 | -2.93 | -0.34 | -1.34 | 0.0626 | 0.39 | -3.09 | -0.541 | 0.453 | 0.488 | 0.792 | -0.579 | 2.82
8 | UAGCAGCACGUAAAUAUUGGCG | -0.0822 | 0.0745 | -0.915 | -0.0204 | 0.8 | 0.0935 | 0.946 | -0.142 | -0.0927 | -0.551 | -0.629 | -0.115 | -0.054 | 0.217
9 | UAGCAGCGGGAACAGUUCUGCAG | 0.681 | -0.757 | -2.86 | -0.261 | -2.27 | 0.142 | 0.339 | -3.34 | 9.71e-17 | 0.822 | -0.446 | 0.756 | 1.12 | 0.481
10 | UAGCUUAUCAGACUGAUGUUGA | -0.228 | 0.437 | 0.067 | -0.166 | 0.65 | -0.604 | -0.465 | -0.0152 | -0.0874 | 0.231 | 0.355 | 0.943 | -0.564 | -0.0716
11 | UAGGCAGUGUCAUUAGCUGAUUG | 1.04 | -5.52 | -1.11 | 1.22 | -2.78 | -3.63 | -5.22 | 0.837 | -2.66 | 0.274 | 1.92 | -0.567 | 0.66 | -1.58
12 | UAGGUAGUUUCAUGUUGUUGG | 0.216 | -1.54 | 1.58 | -0.663 | -1.52 | -1.16 | -1.91 | 1.55 | -0.0228 | -0.281 | 1.68 | 0.553 | 0.576 | 0.231
13 | UAGGUUAUCCGUGUUGCCUUCG | -0.557 | 0.345 | -0.104 | 0.327 | 1.02 | 0.616 | -0.452 | -0.174 | 0.0096 | 1.26 | 0.827 | -0.0884 | -0.804 | 0.258
14 | UAGUACCAGUACCUUGUGUUCA | -0.45 | 0.789 | 0.884 | 0.088 | -2.96 | 0.174 | 0.000513 | 0.421 | -0.471 | -0.322 | -0.362 | 0.0822 | -0.292 | 1.08
15 | UAGUGCAAUAUUGCUUAUAGGGUUU | -0.656 | -1.22 | 0.629 | 0.0165 | -2.42 | 0.515 | 0.454 | 0.572 | 0.766 | 0.108 | -0.0733 | 1.16 | -1.04 | -0.0644
16 | UAUACAAGGGCAAGCUCUCUGU | -0.0857 | -0.739 | 0.144 | 0.186 | 0.159 | -1.08 | 0.32 | 0.075 | -0.0974 | 0.0525 | 0.912 | 0.0344 | -0.221 | -0.506
17 | UAUGCAUUGUAUUUUUAGGUCC | 0.674 | 0.224 | -0.388 | 0.558 | -1.29 | -0.281 | 0.248 | -0.778 | 0.872 | -1.28 | -2.52 | 0.308 | -0.83 | -1.13
18 | UAUGGCACUGGUAGAAUUCACUG | 0.00324 | 0.196 | 0.255 | -0.187 | 0.482 | 0.735 | 0.422 | 0.00898 | -0.295 | -1.31 | 0.374 | -0.628 | -0.0687 | -2.1
19 | UAUGGCUUUUCAUUCCUAUGUG | -1.68 | 0.203 | 0.501 | -0.329 | -0.208 | 0.938 | -0.427 | 0.255 | 0.259 | -0.00424 | 0.949 | -1.89 | 0.354 | 0.267
